Among the test systems are ACHN; CCRF-CEM; HCT-116; HCT-15; HL-60; HOP-62; K562; MDA-MB-435; NCI-H23; NCI/ADR-RES; OVCAR-8; SF-295; SF-539; SK-MEL-28; SN12C; T47D; UO-31; BT-549.
What all share (experiment): NCI anticancer screen, dose series, 48 h

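Cells were grown in 96-well plates and exposed to each compound for 48 hours at five concentrations; endpoints were interpolated linearly between bracketing concentrations, or set to the highest concentration if not reached. GI50: concentration for 50% inhibition of growth.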 Active and inactive are the calls of the source. Rule as the data show it: active = GI50 up to about 1.1 µM and inactive = higher. Where only a bound is given, the exact number is not on record here.

Turning to `C=CCC1C2CCC(O[Si](C(C)C)(C(C)C)C(C)C)(C(C(=O)OC)C2)C1O` (stereo not given), the GI50 with ACHN is > 100 µM (inactive); in the assay on CCRF-CEM, 60.8 µM (inactive); in the assay on HCT-116, 19.5 µM (inactive); with HCT-15, 77.3 µM; in the assay with HL-60 it was 13.3 µM (inactive); in the assay with HOP-62 it was > 100 µM (inactive). Besides, the GI50 in the assay with K562 is 71.9 µM (inactive); in the assay with MDA-MB-435 it was 53.7 µM (inactive); in the assay with NCI-H23, 23.5 µM (inactive); in the assay on NCI/ADR-RES it was > 100 µM (inactive); with OVCAR-8, > 100 µM (inactive); in the assay with SF-295, 23.4 µM (inactive). Besides, the GI50 with SF-539 was > 100 µM (inactive); in the assay on SK-MEL-28, 65.8 µM (inactive); in the assay with SN12C it was > 100 µM (inactive); with T47D, 38.8 µM (inactive); in the assay on UO-31 it was 49.2 µM (inactive).
Take `COc1cc(C=O)ccc1Oc1nnnn1-c1ccccc1`: the GI50 is 66.2 µM (inactive) in the assay with BT-549; 19.6 µM (inactive) in the assay on CCRF-CEM; 29.8 µM (inactive) in the assay with HCT-116; 62.5 µM in the assay on HCT-15; > 100 µM (inactive) in the assay on HOP-62; 34.7 µM (inactive) in the assay on K562. The GI50 is 36.4 µM (inactive) in the assay on MDA-MB-435; 46 µM (inactive) with NCI-H23; 38.5 µM (inactive) in the assay on NCI/ADR-RES; 66.2 µM (inactive) with OVCAR-8; > 100 µM (inactive) in the assay with SF-295; 72.4 µM (inactive) in the assay with SK-MEL-28. The figures for the GI50 in the assay with SN12C, with T47D and with UO-31 were > 100 µM (inactive), 16.5 µM (inactive) and 94.4 µM (inactive), respectively.
In the case of `COc1ccc(-c2c(C#N)c(-c3ccc(C)cc3)n(NS(=O)(=O)c3ccc(C)cc3)c(=O)c2C#N)cc1`, the GI50 with ACHN is 50.6 µM (inactive); in the assay with BT-549, 33.9 µM (inactive); with CCRF-CEM, 23.7 µM (inactive); with HCT-116, 38.5 µM (inactive); in the assay with HCT-15, 60.3 µM; in the assay with HOP-62 it was 39.7 µM (inactive). Besides, the GI50 with K562 was 57 µM (inactive); in the assay on MDA-MB-435, 65.9 µM (inactive); in the assay on NCI/ADR-RES, 53.7 µM (inactive); with OVCAR-8 it was 72.3 µM (inactive); with SF-295, 37.8 µM (inactive); in the assay with SF-539, 32.4 µM (inactive). In addition, the figures for the GI50 with SK-MEL-28 and in the assay on SN12C were 61.1 µM (inactive) and 66.2 µM (inactive), respectively.
`CCCC(=O)Oc1cc(OC(=O)CCC)c2c(C)cc(=O)oc2c1`: the GI50 in the assay on ACHN was > 100 µM (inactive); with CCRF-CEM it was 31.9 µM (inactive); in the assay with HCT-116, 50.1 µM (inactive); in the assay with HCT-15 it was above 100 µM; with HOP-62, > 100 µM (inactive); in the assay on K562, 44.9 µM (inactive). Further, the GI50 in the assay with MDA-MB-435 is 58.6 µM (inactive); in the assay with NCI-H23, 71 µM (inactive); in the assay with NCI/ADR-RES, > 100 µM (inactive); in the assay with OVCAR-8, 75.7 µM (inactive); in the assay on SF-295, 78.7 µM (inactive); in the assay on SF-539 it was 21.8 µM (inactive). In addition, the GI50 was > 100 µM (inactive) with SK-MEL-28, > 100 µM (inactive) in the assay on SN12C and 39.6 µM (inactive) in the assay with UO-31.
Regarding `Cc1cccc(CC(Cc2c(C)cccc2C(=O)O)C(=O)O)c1` (stereo not given), the GI50 with ACHN was > 100 µM (inactive); with BT-549, > 100 µM (inactive); in the assay with CCRF-CEM it was > 100 µM (inactive); in the assay on HCT-116 it was > 100 µM (inactive); in the assay with HCT-15, 31.3 µM; in the assay on HL-60 it was > 100 µM (inactive). The GI50 with HOP-62, with K562, in the assay with MDA-MB-435, with NCI-H23, in the assay with NCI/ADR-RES and with OVCAR-8 was > 100 µM (inactive) throughout. Further, the GI50 in the assay with SF-295, with SF-539, with SK-MEL-28, with SN12C and in the assay with UO-31 was > 100 µM (inactive) each time.
For the molecule `CC1(C)N=c2c(ncn2Cc2ccccc2)=C(C(N)=O)N1`, the GI50 in the assay on ACHN was 94.4 µM (inactive); in the assay with CCRF-CEM it was > 100 µM (inactive); with HCT-116, > 100 µM (inactive); in the assay on HCT-15, above 100 µM; in the assay on HL-60, > 100 µM (inactive); with HOP-62 it was > 100 µM (inactive). Moreover, the GI50 with K562, with MDA-MB-435, in the assay on NCI-H23, with NCI/ADR-RES, with OVCAR-8 and in the assay with SF-295 was > 100 µM (inactive) in each case. The GI50 with SF-539, in the assay with SK-MEL-28, with SN12C and with T47D was > 100 µM (inactive) throughout.
On to `O=C1c2ccccc2-c2ccc(O)cc21`, for which the GI50 with ACHN was 16.6 µM (inactive); in the assay with HCT-116, 45.6 µM (inactive); in the assay on HCT-15, 21.6 µM; with HL-60, 23.2 µM (inactive); in the assay on HOP-62, 36.4 µM (inactive); in the assay with K562, 31.4 µM (inactive). Moreover, the GI50 in the assay on MDA-MB-435 was 20.2 µM (inactive); in the assay with NCI-H23, 16.9 µM (inactive); in the assay on NCI/ADR-RES, 31.8 µM (inactive); with OVCAR-8, 20.2 µM (inactive); in the assay on SF-295 it was 22.9 µM (inactive); in the assay on SF-539, 22.9 µM (inactive). For the same molecule, the GI50 in the assay with SK-MEL-28 is 19.7 µM (inactive); in the assay with SN12C it was 15.7 µM (inactive); in the assay on T47D, 18.4 µM (inactive); in the assay with UO-31 it was 17.2 µM (inactive).
`NC(=O)CC(N)C(=O)NC(Cc1ccccc1)C(=O)NC(Cc1ccccc1)NC(=O)C(Cc1c[nH]c2ccccc12)C(=O)O` (stereo not given): the GI50 was > 100 µM (inactive) in the assay with ACHN; > 100 µM (inactive) with CCRF-CEM; > 100 µM (inactive) in the assay on HCT-116; above 100 µM in the assay with HCT-15; > 100 µM (inactive) in the assay on HOP-62; > 100 µM (inactive) in the assay on K562. Besides, the GI50 in the assay on MDA-MB-435, with NCI-H23, in the assay on NCI/ADR-RES, in the assay on OVCAR-8, in the assay with SF-295 and in the assay with SF-539 was > 100 µM (inactive) in each case. Moreover, the GI50 in the assay on SK-MEL-28, in the assay with SN12C, with T47D and in the assay on UO-31 was > 100 µM (inactive) each time.
In the case of `Nc1ncnc2c1nnn2C1C=CC(CP(=O)(O)O)C1` (stereo not given), the GI50 was > 100 µM (inactive) with ACHN; > 100 µM (inactive) in the assay with HCT-116; above 100 µM in the assay on HCT-15; > 100 µM (inactive) in the assay with HL-60; > 100 µM (inactive) with HOP-62; > 10 µM (inactive) with MDA-MB-435. Further, the GI50 in the assay with NCI-H23, in the assay on NCI/ADR-RES, in the assay with OVCAR-8, in the assay with SF-295, with SF-539 and in the assay with SK-MEL-28 was > 100 µM (inactive) in each case. Besides, the GI50 with SN12C, in the assay on T47D and with UO-31 was > 100 µM (inactive) in each case.
In the case of `CC(C)[Si](OC1=C(C(=O)N(C)c2cccc(Cl)c2)CCCC1)(C(C)C)C(C)C`, the GI50 was 16.2 µM (inactive) in the assay on ACHN; 29.7 µM (inactive) in the assay on CCRF-CEM; 14 µM in the assay with HCT-15; 5.61 µM (inactive) in the assay with HL-60; 17.6 µM (inactive) in the assay with HOP-62; 4.94 µM (inactive) with K562. For the same molecule, the GI50 is 15.5 µM (inactive) with MDA-MB-435; 11.7 µM (inactive) in the assay with NCI-H23; 12.6 µM (inactive) in the assay with NCI/ADR-RES; 16.8 µM (inactive) in the assay with OVCAR-8; 11 µM (inactive) in the assay with SF-295; 17.3 µM (inactive) in the assay with SF-539. Moreover, the GI50 in the assay on SK-MEL-28 was 13.6 µM (inactive); with T47D it was 2.91 µM (inactive); in the assay with UO-31, 14.5 µM (inactive).
As for `Cn1cnc(N2CCCC2)c(C#N)c1=S`, the GI50 in the assay on ACHN is > 100 µM (inactive); in the assay on CCRF-CEM, > 100 µM (inactive); with HCT-116, > 100 µM (inactive); in the assay with HCT-15, above 100 µM; in the assay on HL-60, > 100 µM (inactive); in the assay on HOP-62, > 100 µM (inactive). Further, the GI50 in the assay on K562, in the assay on MDA-MB-435, with NCI-H23, in the assay with NCI/ADR-RES, in the assay with OVCAR-8 and in the assay with SF-295 was > 100 µM (inactive) in each case. In addition, the GI50 in the assay with SF-539 is > 100 µM (inactive); in the assay on SK-MEL-28, > 100 µM (inactive); in the assay with SN12C it was > 100 µM (inactive); with T47D, > 100 µM (inactive); in the assay on UO-31 it was 23.2 µM (inactive).
As to `COc1cc(C2c3cc4c(cc3OC(NCc3ccccc3)C2C)OCO4)cc(OC)c1OC` (stereo not given), the GI50 with ACHN was 1.01 µM (active); with BT-549, 0.631 µM (active); in the assay on CCRF-CEM, 0.39 µM (active); in the assay on HCT-116, 0.364 µM (active); in the assay with HCT-15, 0.543 µM; with HL-60 it was 0.277 µM (active). Further, the GI50 in the assay on HOP-62 was 0.553 µM (active); with K562, 0.305 µM (active); in the assay with MDA-MB-435, 0.102 µM (active); in the assay with NCI-H23, 0.417 µM (active); in the assay on NCI/ADR-RES, 0.258 µM (active); in the assay with OVCAR-8, 0.482 µM (active). Besides, the GI50 in the assay on SF-295 is 0.219 µM (active); with SF-539 it was 0.273 µM (active); in the assay with SK-MEL-28, 4.04 µM (inactive); in the assay on SN12C, 0.697 µM (active); with UO-31 it was 0.504 µM (active).
In the case of `C=C(C)CCC1CC=[N+]([O-])OC1C(C)(C)C` (stereo not given), the GI50 in the assay with ACHN is 68.9 µM (inactive); in the assay with CCRF-CEM, 11.4 µM (inactive); in the assay on HCT-116 it was 21.8 µM (inactive); with HCT-15, 26.1 µM; in the assay with HL-60 it was 2.65 µM (inactive); in the assay on HOP-62, 79.3 µM (inactive). Further, the GI50 with K562 was > 100 µM (inactive); in the assay on MDA-MB-435, 16.1 µM (inactive); in the assay with NCI/ADR-RES, 27.3 µM (inactive); in the assay with OVCAR-8 it was 66.5 µM (inactive); in the assay on SF-295, > 100 µM (inactive); with SF-539, 72.6 µM (inactive). The GI50 in the assay with SN12C was 49.4 µM (inactive); in the assay with T47D it was 20.7 µM (inactive); in the assay with UO-31, 30.3 µM (inactive).

Source of the values: ChEMBL document CHEMBL1201862, “PubChem BioAssay data set” (2004).
